Laboratory results taken from patent publication US20120283203A1, “METHODS AND COMPOSITIONS FOR THE TREATMENT OF OBESITY, INSULIN RELATED DISEASES AND HYPERCHOLESTEROLEMIA” (Board of Trustees of Michigan State University, priority 2005, published 2012).
“And” between values parts separate entries of the source, which are not always exact repeats. Equal values may be shown once. “Also recorded” adds a separate entry of the source. Blank lines part the entries; values can stand above or below the compound they belong to.

Columns and labels:
INS-1 832/13 cells = assay: Insulin secretion by INS-1 832/13 pancreatic beta cells (RIA, normalized to cellular protein); type: cell-based, rodent; conditions: for increase in insulin secretion: increase over untreated cells; for fold increase in insulin secretion: vs untreated cells
Procedure: Insulin Secretion Studies. INS-1 832/13 cells (kindly provided by Dr Christopher Newgard, Duke University, N.C.) were routinely cultured in 5% CO2/air at 37° C. in RPMI-1640 medium containing 11.1 mM glucose and supplemented with 10% FBS (Fetal Bovine Serum), 10 mM HEPES, 100 U/ml penicillin, […] streptomycin, 4 mM Glutamine, 1 mM sodium pyruvate, and 50 μM 2-mercaptoethanol. Cells were passed weekly after trypsin-EDTA detachment. For static secretion studies, cells were plated on 24 well plates at a density of 0.64×10^6 cells per well and grown for 24 h. The cells were then cultured for an additional 24 h in RPMI-1640 containing 4 mM glucose and the supplements described above. Cells were then incubated twice for 30 min in Krebs Ringer Bicarbonate buffer (KRBB) containing 4 mM glucose and 0.1% BSA. Cells were rapidly washed with KRBB and incubated for 60 min KRBB containing 4 or 10 mM glucose with or without the indicated anthocyanins or anthocyanidins. The medium was then removed for determining insulin release. The cells were then washed twice with PBS and dissolved in 1 M NaOH. Cellular protein concentration was then determined by Lowry assay. Anthocyanins and anthocyanidins were dissolved in DMSO to obtain desired concentrations. Final concentration of DMSO was 0.1%. The insulin secreted into the medium by the cells was determined by radioimmuno assay and normalized to total cellular protein.
Radio Immuno Assay (RIA). The Kit for RIA was purchased from LINCO Research Inc. (St Charles, Mo.), and the assay was conducted according to the manufacturer's directions. Briefly, 0.1-10 ng of insulin standards (100 μl) were added to 12×75 mm test tubes. Similarly, samples (25 μl) from the insulin secretion studies were also added to the test tubes. To this, an aliquot (75 μl) of assay buffer was added. The ^125I labeled insulin (100 μl) was then added to each test tube. […] The tubes were then centrifuged and the radioactivity was measured using a gamma counter.
Lowry protein Assay. The amount of protein in the assay wells was determined by Lowry method. The Lowry assay solution was prepared by combining the Lowry solution, CuSO4.5H2O (1%), and sodium tartarate (1%). Briefly, the protein sample (100 μl) and Lowry mixture (1 mL) were mixed in a test tube (12×75). The Folin-Ciolatues reagent (100 μl) was added to these tubes, mixed, and incubated for 30 min at room temperature. The optical density of resulting solutions was read at 700 nm using a UV spectrophotometer.

[1] = Body weight of C57BL/6J mice on high fat diet, 12-week feeding study; type: in vivo; conditions: for weight gain during the treatment period: 8 weeks of treatment in high fat diet, high fat control 9.76 g; for overall weight gain during the experimental period: 12 weeks, high fat control 18.98 g; for weight loss: compared to the high fat diet controls; for body weight: high fat diet with compound, high fat control 36.91 g, normal diet 31.5 g
Procedure: Animals and Diet: Male C57BL/6J mice, 4 weeks old, were purchased from Jackson Laboratories (Bar Harbor, Me., USA). The mice were individually housed under controlled temperature (70° F.) and 12 h light-dark cycles. The mice (n=40) had free access to water and laboratory non-purified diet for 5 days. After acclimatization, the mice were randomly divided into groups 1-5 (n=8) for the study. The experiments were carried out according to the ethical guidelines of University Laboratory Animal Resources (ULAR) at Michigan State University, East Lansing, Mich. The diets, 10% K. Cal. (normal) and 60% K. Cal. (high fat), were purchased from Research Diets (New Brunswick, N.J.). The controls were groups 1 and 2 and received normal (10% K. Cal.) and high fat (60% K. Cal.) diets, respectively, throughout the study. The food was prepared for each treatment separately by mixing 1 g of pure anthocyanin mixture, 500 mg each of betulinic and ursolic acids per kilogram high fat diet. The treatment groups, 3-5, were fed initially for 4 weeks with the high fat diet and then switched to the diet containing anthocyanins, betulinic acid or ursolic acids. Food was changed at intervals of three days to avoid oxidation of the fat or compounds. The daily food intake (FIG. 1) and the weekly body weight for each animal were determined throughout the study (FIG. 2A-C).

[2] = for plasma insulin level: end of feeding, controls 0.47 and 0.41 ng/mL
Procedure: Collection of serum, liver and adipose tissue. The feeding was terminated after 12 weeks. The animals were then anesthetized by using isoflurane, sacrificed and blood was collected by cardiac puncture in heparinized tubes. The plasma was separated by centrifugation at 1600×g for 10 min at 4° C., frozen immediately and stored at −20° C. until use. […] All tissues were then transferred from liquid nitrogen and stored at −80° C. until analyses.
Radio Immuno Assay (RIA). The plasma insulin levels were measured by rat insulin RIA kit purchased from LINCO Research Inc. (St. Charles, Mo.). The insulin standards (100 aliquots) were pipetted to 12×75 mm test tubes. A total of 10 concentrations of insulin, ranging from 0.1-10 ng/mL, were used to determine the standard curve. The plasma samples (aliquots of 1-25 μl) were added to test tubes and the assay buffer was added to attain a total sample volume of 100 μl. The ^125I labeled insulin and anti rat insulin antibody (100 μL each) were added to the tubes, mixed and incubated at 4° C. After 24 h, the precipitating reagent (1 mL) was added and incubated again at 4° C. for 20 min to precipitate the insulin bound to the antibody. The tubes were then centrifuged for 20 min at 3000 g, decanted and the radioactivity was measured using a gamma counter.

[3] = Glucose tolerance test (i.p. glucose 2 g/kg) in high fat diet fed mice; type: in vivo, C57BL/6J mice; conditions: for blood glucose level after 90 min of glucose load: 90 min after 2 g/kg i.p. glucose, high fat control 363, normal diet 190
Procedure: Glucose Tolerance Test (GTT). The glucose tolerance test was performed on five animals from each group (n=5) after 6 weeks of supplementation. The blood glucose level was measured at time 0 (min) with a Free Style Flash (TheraSense, Inc., CA) handheld glucometer using the test strips (Free Style, TheraSense, Inc., CA). For GTT, a sterile solution containing 2 g of glucose per kg body weight was injected intraperitoneally (i.p.). The tail vein blood was collected and glucose levels measured at 5, 10, 15, 30, 60, and 90 min, respectively. The blood glucose levels were plotted against the time (FIG. 3).

[4] = Total plasma cholesterol at end of feeding study; type: in vivo, C57BL/6J mice; conditions: high fat control 156.4, normal diet 120.5
Procedure: Collection of serum, liver and adipose tissue. The feeding was terminated after 12 weeks.
Determination of Plasma Cholesterol: The total plasma cholesterol was analyzed by Clinical Pathology Laboratory at the Diagnostic Center for Population and Animal Health, College of Veterinary Medicine, Michigan State University according to the established standard analytical protocol for total cholesterol.

[5] = 4 and 10 mM glucose, or glucose level not specified

Compound: OC[C@H]1O[C@@H](Oc2cc3c(O)cc(O)cc3[o+]c2-c2ccc(O)c(O)c2)[C@H](O)[C@@H](O)[C@H]1O [cyanidin-3-galactoside]
- effect on insulin secretion (in words) (INS-1 832/13 cells; 4 mM glucose): did not increase the insulin secretion
- increase in insulin secretion (INS-1 832/13 cells; 10 mM glucose, 50 μg/mL): 17 ng/mg of protein
- fold increase in insulin secretion (INS-1 832/13 cells; 10 mM glucose, 50 μg/mL): 1.2 fold
- effect on insulin secretion (in words) (INS-1 832/13 cells; [5]): significant increase in insulin secretion

Compound: C[C@H]1[C@H](C)CC[C@]2(C(=O)O)CC[C@]3(C)C(=CC[C@@H]4[C@@]5(C)CC[C@H](O)C(C)(C)[C@@H]5CC[C@]43C)[C@H]12 [ursolic acid]
- weight gain during the treatment period ([1]; listed as 3 (group 5)): 8.78 g
- overall weight gain during the experimental period [1]: 17.45 g
- effect on body weight (in words) ([1]; compared to high fat diet control): did not decrease bodyweight of the treated animals significantly
- weight loss [1]: not significant
- body weight [1]: 34.89 g
- plasma insulin level [2]: 52.25 ± 8.84 ng/mL and 52.25 ± 18.84 ng/mL
- blood glucose level after 90 min of glucose load [3]: 227 ± 22.982 mg/dL
- time at which blood glucose concentration reached the maximum ([3]; after glucose injection): 60 min
- glucose tolerance / insulin resistance (in words) ([3]; high fat diet fed mice): corrected glucose levels similar to control group animals fed on normal diet; also recorded: overcame the insulin resistance; also recorded: glucose absorption was slow

Compound: OCC1OC(Oc2cc3c(O)cc(O)cc3[o+]c2-c2ccc(O)cc2)C(O)C(O)C1O (stereo not shown) [pelargonidin-3-galactoside]
- effect on insulin secretion (in words) (INS-1 832/13 cells; 4 mM glucose): did not increase the insulin secretion
- effect on insulin secretion (in words) (INS-1 832/13 cells; [5]): did not induce insulin secretion

Compound: OC[C@H]1O[C@@H](Oc2cc3c(O)cc(O)cc3[o+]c2-c2cc(O)c(O)c(O)c2)[C@H](O)[C@@H](O)[C@@H]1O [delphinidin-3-glucoside]
- insulin secreted (INS-1 832/13 cells; 4 mM glucose, 50 μg/mL): 49 ng/mg of protein
- fold increase in insulin secretion (INS-1 832/13 cells; 4 mM glucose, 50 μg/mL): 1.8 fold
- insulin secreted (INS-1 832/13 cells; 10 mM glucose, 50 μg/mL): 113 ng/mg protein
- fold increase in insulin secretion (INS-1 832/13 cells; 10 mM glucose, 50 μg/mL): 1.4 fold
- effect on insulin secretion (in words) (INS-1 832/13 cells; [5]): most effective insulin secretagogues; also recorded: significantly induced the insulin secretion
- effect on insulin secretion (in words) (INS-1 832/13 cells; 4 and 10 mM glucose, or glucose level not specified, listed as Delphinidin-3-glucoside): most active anthocyanin tested

Compound: COc1cc(-c2[o+]c3cc(O)cc(O)c3cc2O)cc(O)c1O [petunidin]
- increase in insulin secretion (INS-1 832/13 cells; 4 mM glucose, 50 μg/mL): 4 ng/mg of protein

Compound: Oc1cc(O)c2cc(O)c(-c3cc(O)c(O)c(O)c3)[o+]c2c1 [delphinidin]
- increase in insulin secretion (INS-1 832/13 cells; 4 mM glucose, 50 μg/mL): 6 ng/mg of protein

Compound: Oc1cc(O)c2cc(O)c(-c3ccc(O)c(O)c3)[o+]c2c1 [cyanidin]
- insulin secreted (INS-1 832/13 cells; 4 mM glucose, 50 μg/mL): 29 ng/mg of protein
- fold increase in insulin secretion (INS-1 832/13 cells; 4 mM glucose, 50 μg/mL): 1.5 fold
- insulin secreted (INS-1 832/13 cells; 10 mM glucose, 50 μg/mL): 88 ng/mg protein

Compound: Oc1ccc(-c2[o+]c3cc(O)cc(O)c3cc2O)cc1 [pelargonidin]
- insulin secreted (INS-1 832/13 cells; 4 mM glucose, 50 μg/mL): 49 ng/mg of protein
- fold increase in insulin secretion (INS-1 832/13 cells; 4 mM glucose, 50 μg/mL): 1.4 fold
- insulin secreted (INS-1 832/13 cells; 10 mM glucose, 50 μg/mL): 91 ng/mg protein
- fold increase in insulin secretion (INS-1 832/13 cells; 10 mM glucose, 50 μg/mL): 1.2 fold

Compound: OC[C@H]1O[C@@H](Oc2cc3c(O)cc(O)cc3[o+]c2-c2ccc(O)c(O)c2)[C@H](O)[C@@H](O)[C@@H]1O [cyanidin-3-glucoside]
- effect on insulin secretion (in words) (INS-1 832/13 cells; 4 mM glucose): less active than delphinidin-3-glucoside
- insulin secreted (INS-1 832/13 cells; 4 mM glucose, 5 μg/mL, untreated cells 33): 46 ng of insulin per mg protein
- increase in insulin secretion (INS-1 832/13 cells; 4 mM glucose, 50 μg/mL): 9 ng/mg of protein
- fold increase in insulin secretion (INS-1 832/13 cells; 4 mM glucose, 50 μg/mL): 1.3 fold
- dose dependent insulin secretion (in words) (INS-1 832/13 cells; 4 mM glucose, 10, 50, 100 and 250 μg/mL): no significant difference in insulin secretion
- effect on insulin secretion (in words) (INS-1 832/13 cells; 10 mM glucose): more active
- insulin secreted (INS-1 832/13 cells; 10 mM glucose, 50 μg/mL): 119 ng/mg protein
- fold increase in insulin secretion (INS-1 832/13 cells; 10 mM glucose, 50 μg/mL): 1.43 fold
- effect on insulin secretion (in words) (INS-1 832/13 cells; [5]): most effective insulin secretagogues

- hypoglycemia ([2]; mouse, in vivo): without causing hypoglycemia
Compound: anthocyanins

Compound: C=C(C)[C@@H]1CC[C@]2(C(=O)O)CC[C@]3(C)[C@H](CC[C@@H]4[C@@]5(C)CC[C@H](O)C(C)(C)[C@@H]5CC[C@]43C)[C@@H]12 [betulinic acid]
- weight gain during the treatment period [1]: 7.73 ± 0.44 g
- weight gain during the treatment period ([1]; listed as 2 (group 4)): 7.73 g
- overall weight gain during the experimental period [1]: 15.16 g
- weight loss [1]: 21%
- body weight [1]: 33.54 g
- plasma insulin level [2]: 460 ± 93.68 ng/mL and 460.86 ± 193.68 ng/mL
- plasma cholesterol level [4]: 126.5 ± 14.01 mg/dL
- blood glucose level after 90 min of glucose load [3]: 317.8 ± 21.9 mg/dL
- blood glucose level at zero time ([3]; before glucose load, high fat control 119.8): 123.4 ± 6.0 mg/dL
